Data taken from US20050020557A1, “Method for treating diseases using HSP90-inhibiting agents in combination with enzyme inhibitors” (Kosan Biosciences, Inc., priority 2003, published 2005).

Columns and labels:
ErbB2 protein [1] = experiment: ErbB2 protein expression in SKBr3 cells; type: cell-based, human
ErbB2 protein [2] = experiment: ErbB2 protein expression in glioma cells; type: cell-based
[3] = clinical trials; twice-weekly regimen; sole agent; cited from earlier work
[4] = test system: DLD-1 cells (human colorectal cancer cells); experiment: Cell viability (MTS) drug combination assay, combination index by median effect analysis, DLD-1 cells; type: cell-based; settings: combination of enzyme inhibitor with 17-AAG, CI<1 synergism, CI=1 additivity, CI>1 antagonism
Protocol: Human colon adenocarcinoma cell line, DLD-1, and human breast adenocarcinoma cell line, SKBr-3, were obtained from American Type Culture Collection (manassas, Va.). […] 17-DMAG and 17-AAG were obtained using published procedures. Other cytotoxic agents were purchased commercially from suppliers such as Sigma Chemical Co. (St. Louis, Mo.) and Sequoia Research Products (Oxford, UK).
Cells were seeded in duplicate in 96-well microtiter plates at a density of 5,000 cells per well and allowed to attach overnight. […] Cell viability was determined using the MTS assay (Promega). For the drug combination assay, cells were seeded in duplicate in 96-well plates (5,000 cells/well). […] Based on the IC50 values of each individual drug, combined drug treatment was designed at constant ratios of two drugs, i.e., equivalent to the ratio of their IC50. Two treatment schedules were used: In one schedule, the cells were exposed to 24 hours of 17-AAG or 17-DMAG. The drug was then added to the cells and incubated for 48 hours. […] Cell viability was determined by the MTS assay.
Synergism, additivity or antagonism was determined by median effect analysis using the combination index (CI) calculated using Calcusyn (Biosoft, Cambridge, UK). […] The “enhancing” effect of two drugs can also be determined.

[5] = test system: SKBr-3 cells (human breast cancer cells); experiment: Cell viability (MTS) drug combination assay, combination index by median effect analysis, SKBr-3 cells; type: cell-based; settings: combination of enzyme inhibitor with 17-AAG, CI<1 synergism, CI=1 additivity, CI>1 antagonism; for CI value, 17-AAG Pre-Administration: 17-AAG 24 h before enzyme inhibitor (48 h); for CI value, 17-AAG Post-Administration: enzyme inhibitor 24 h, then 17-AAG for 48 h
Protocol: Human colon adenocarcinoma cell line, DLD-1, and human breast adenocarcinoma cell line, SKBr-3, were obtained from American Type Culture Collection (manassas, Va.). […] Other cytotoxic agents were purchased commercially from suppliers such as Sigma Chemical Co. (St. Louis, Mo.) and Sequoia Research Products (Oxford, UK). Cells were seeded in duplicate in 96-well microtiter plates at a density of 5,000 cells per well and allowed to attach overnight. […] Cell viability was determined using the MTS assay (Promega). […] Based on the IC50 values of each individual drug, combined drug treatment was designed at constant ratios of two drugs, i.e., equivalent to the ratio of their IC50. Two treatment schedules were used: In one schedule, the cells were exposed to 24 hours of 17-AAG or 17-DMAG. The drug was then added to the cells and incubated for 48 hours. […] Cell viability was determined by the MTS assay. Synergism, additivity or antagonism was determined by median effect analysis using the combination index (CI) calculated using Calcusyn (Biosoft, Cambridge, UK). […] The “enhancing” effect of two drugs can also be determined.

Compound	expression of ErbB2 protein (ErbB2 protein [1])	expression of ErbB2 protein (ErbB2 protein [2])	MTD (maximum tolerated dose) [3]	CI value, 17-AAG Pre-Administration ([4]; 17-AAG 24 h before enzyme inhibitor (48 h))	CI value, 17-AAG Post-Administration ([4]; enzyme inhibitor 24 h, then 17-AAG for 48 h)	CI value, 17-AAG Pre-Administration [5]	CI value, 17-AAG Post-Administration [5]
C=CCNC1=C2C[C@@H](C)C[C@H](OC)[C@H](O)[C@@H](C)/C=C(\C)[C@H](OC(N)=O)[C@@H](OC)/C=C\C=C(/C)C(=O)NC(=CC1=O)C2=O [17-AAG, 17-(allylamino)-17-desmethoxygeldanamycin]	reduced the expression of ErbB2 protein	reduced the expression of ErbB2 protein	about 220 mg/m2	–	–	–	–
COc1cc2ncnc(Nc3ccc(F)c(Cl)c3)c2cc1OCCCN1CCOCC1 [Iressa]	–	–	–	0.76 ± 0.37	0.41 ± 0.01	0.77 ± 0.29	0.67 ± 0.02
CC(/C=C/C(=O)NO)=C\[C@@H](C)C(=O)c1ccc(N(C)C)cc1 [Trichostatin A]	–	–	–	–	–	1.16 ± 0.02	0.91 ± 0.007
